Test results taken from patent US12195505B2, “Treatment of cystic fibrosis by delivery of nebulized mRNA encoding CFTR” (Translate Bio, Inc., priority 2018, dated 2025).

Test system: human bronchial epithelial cells
Experiment: Ussing chamber assay, Forskolin-induced chloride channel activity
Type: cell-based
Details: added after current measurement, all groups
Method: The changes in chloride transport across the bronchial epithelial cell membrane was measured by short circuit current output in a Ussing epithelial voltage clamp apparatus (i.e., a Ussing chamber). Specifically, using an established Ussing Chamber procedure (Charles River Laboratories), hCFTR mRNA encapsulated in a liposome comprising ICE, DOPE, and a PEG-modified lipid was incubated for 2 or 4 hours on the apical (mucosal) or basolateral (serosal) sides, or both sides, of human bronchial epithelial cells. A buffer blank also was included as a control, for example, to assess chloride transport by endogenous CFTR in the cells. Next, Forskolin-induced chloride channel activity was measured using the Ussing chamber assay.

## O=C(O)c1ccc(/C=C2\SC(=S)N(c3cccc(C(F)(F)F)c3)C2=O)cc1 [CFTR inhibitor-172]
  Effect on chloride activity in Ussing chamber: inhibited
